Here are results for 24 compounds from US7728028B2, “Substituted imidazoline compounds” (Gruenenthal GmbH, priority 2005, dated 2010).

Read-outs that look alike come from different tables or passages of the source.

The test addresses T1, human μ-opiate receptor (Homo sapiens, UniProt P35372).
T1 construct: purchased PerkinElmer Life Sciences, Zaventem, Belgium RB-HOM; host or cells: CHO-K1 cells (recombinant expression; membrane preparation)
As to the kind of experiment: Affinity for the human μ-opiate receptor ([3H]-naloxone displacement, SPA). To be noted: test substance 1 μmole/l, inhibition of specific [3H]-naloxone binding, CHO-K1 membranes, read-out: μ-Opioid receptor, % inhibition [1 μM]. The procedure:
Investigations on the Efficacy of the Compounds According to the Invention Method for Determining the Affinity for the Human μ-Opiate Receptor
The receptor affinity for the human μ-opiate receptor is determined in a homogeneous batch in microtiter plates. For this purpose dilution series of the substances to be tested are incubated with a receptor membrane preparation (15-40 μg protein/250 μl incubation batch) of CHO-K1 cells, which express the human μ-opiate receptor (RB-HOM receptor membrane preparation from PerkinElmer Life Sciences, Zaventem, Belgium), in the presence of 1 nmole/l of the radioactive ligand [^3H]-naloxone (NET719, PerkinElmer Life Sciences company, Zaventem, Belgium) and 1 mg WGA-SPA beads (wheat germ agglutinin SPA beads from Amersham/Pharmacia, Freiburg, Germany) in a total volume of 250 μl for 90 minutes at room temperature. 50 mmole/l of Tris-HCl supplemented with 0.06% bovine serum albumin is used as incubation buffer. In order to determine the non-specific binding, 100 μmole/l of naloxone is additionally added. After the end of the 90 minutes' incubation time the microtiter plates are centrifuged for 20 minutes at 1000 g and the radioactivity is measured in a beta counter (Microbeta-Trilux, PerkinElmer Wallac, Freiburg, Germany). The percentage displacement of the radioactive ligand from its binding to the human μ-opiate receptor at a concentration of the test substances of 1 μmole/l is determined and is given as percentage inhibition of the specific binding.

T1 sequence (P35372 whole entry): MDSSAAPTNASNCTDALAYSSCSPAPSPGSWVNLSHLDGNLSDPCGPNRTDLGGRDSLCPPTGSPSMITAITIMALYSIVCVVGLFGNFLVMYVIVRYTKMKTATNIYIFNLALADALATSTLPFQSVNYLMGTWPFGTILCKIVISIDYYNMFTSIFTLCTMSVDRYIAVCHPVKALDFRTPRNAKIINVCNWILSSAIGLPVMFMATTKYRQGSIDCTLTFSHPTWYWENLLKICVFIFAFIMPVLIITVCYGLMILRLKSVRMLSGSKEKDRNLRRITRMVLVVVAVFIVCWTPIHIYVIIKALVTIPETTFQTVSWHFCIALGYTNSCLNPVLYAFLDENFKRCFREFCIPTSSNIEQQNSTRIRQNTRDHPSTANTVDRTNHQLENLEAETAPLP

What is called inhibition is the drop in the measured response relative to a control, in per cent. As to `CCCCC1(C(=O)OC)N=CN(CCc2ccccc2)C1C1CCC(C(c2cccc(F)c2)N(C)C)CC1` (stereo not drawn) [Example 39, 4-butyl-5-{4-[dimethylamino-(3-fluorophenyl)-methyl]-cyclohexyl}-1-phenethyl-4,5-dihydro-1H-imidazole-4-carboxylic acid methyl ester], the inhibition at 1 µM (Table 2, Examples 11-161) is 88%.

Consider `COC(=O)C1(CSCc2ccccc2)N=CN(Cc2ccccc2)C1C1CCC(C(c2ccc(Cl)cc2)N(C)C)CC1` (stereo not drawn) [Example 98, 1-benzyl-4-benzylsulfanylmethyl-5-{4-[(4-chlorophenyl)-dimethylaminomethyl]-cyclohexyl}-4,5-dihydro-1H-imidazole-4-carboxylic acid methyl ester], for which the inhibition at 1 µM (Table 2, Examples 11-161) was 95%.

As to `COC(=O)C1(CSCc2ccccc2)N=CN(Cc2ccccc2)C1CC1CCC(C(c2ccc(Cl)cc2)N(C)C)CC1` (stereo not drawn) [Example 101, 1-benzyl-4-benzylsulfanylmethyl-5-{4-[(4-chlorophenyl)-dimethylaminomethyl]-cyclohexylmethyl}-4,5-dihydro-1H-imidazole-4-carboxylic acid methyl ester], where the note is “Table 2, Examples 11-161”, the inhibition at 1 µM was found to be 96%.

As for `CCCCC1(C(=O)OC)N=CN(CCc2ccccc2)C1CC1CCC(C(c2ccc(Cl)cc2)N(C)C)CC1` (stereo not drawn) [Example 45, 4-butyl-5-{4-[(4-chlorophenyl)-dimethylaminomethyl]-cyclohexylmethyl}-1-phenethyl-4,5-dihydro-1H-imidazole-4-carboxylic acid methyl ester], the inhibition at 1 µM (Table 2, Examples 11-161) was determined as 97%.

Take `COC(=O)C1(Cc2ccc(Cl)cc2)N=CN(CCc2ccccc2)C1C1CCC(C(c2cccc(F)c2)N(C)C)CC1` (stereo not drawn) [Example 38, 4-(4-chlorobenzyl)-5-{4-[dimethylamino-(3-fluorophenyl)-methyl]-cyclohexyl}-1-phenethyl-4,5-dihydro-1H-imidazole-4-carboxylic acid methyl ester]: the inhibition at 1 µM (Table 2, Examples 11-161) is 84%.

`CCCN1C=NC(CSCc2ccccc2)(C(=O)OC)C1CC1CCC(C(c2ccc(Cl)cc2)N(C)C)CC1` (stereo not drawn) [Example 64, 4-benzylsulfanylmethyl-5-{4-[(4-chlorophenyl)-dimethylaminomethyl]-cyclohexylmethyl}-1-propyl-4,5-dihydro-1H-imidazole-4-carboxylic acid methyl ester]: the inhibition at 1 µM (Table 2, Examples 11-161) amounted to 98%.

Consider `CCCN1C=NC(CSCc2ccccc2)(C(=O)OC)C1CC1CCC(C(c2ccc(F)cc2)N(C)C)CC1` (stereo not drawn) [Example 161, 4-benzylsulfanylmethyl-5-{4-[dimethylamino-(4-fluorophenyl)-methyl]-cyclohexylmethyl}-1-propyl-4,5-dihydro-1H-imidazole-4-carboxylic acid methyl ester], for which, where the note is “Table 2, Examples 11-161”, the inhibition at 1 µM was determined as 91%.

As to `CCCC1(C(=O)OC)N=CN(CCc2ccccc2)C1CC1CCC(C(c2cccc(F)c2)N(C)C)CC1` (stereo not drawn) [Example 129, 5-{4-[dimethylamino-(3-fluorophenyl)-methyl]-cyclohexylmethyl}-1-phenethyl-4-propyl-4,5-dihydro-1H-imidazole-4-carboxylic acid methyl ester], the inhibition at 1 µM (Table 2, Examples 11-161) worked out at 93%.

With `CCCCN1C=NC(CSCc2ccccc2)(C(=O)OC)C1C1CCC(C(c2ccc(Cl)cc2)N(C)C)CC1` (stereo not drawn) [Example 69, 4-benzylsulfanylmethyl-1-butyl-5-{4-[(4-chlorophenyl)-dimethylaminomethyl]-cyclohexyl}-4,5-dihydro-1H-imidazole-4-carboxylic acid methyl ester], the inhibition at 1 µM (Table 2, Examples 11-161) was found to be 95%.

As to `CCCCN1C=NC(CCC(=O)OC)(C(=O)OC)C1CC1CCC(C(c2cccc(F)c2)N(C)C)CC1` (stereo not drawn) [Example 72, 1-butyl-5-{4-[dimethylamino-(3-fluorophenyl)-methyl]-cyclohexylmethyl}-4-(2-methoxycarbonylethyl)-4,5-dihydro-1H-imidazole-4-carboxylic acid methyl ester], the inhibition at 1 µM (Table 2, Examples 11-161) is 95%.

Regarding `COC(=O)C1(CC(C)C)N=CN(Cc2ccccc2)C1C1CCC(C(c2ccc(Cl)cc2)N(C)C)CC1` (stereo not drawn) [Example 48, 1-benzyl-5-{4-[(4-chlorophenyl)-dimethylaminomethyl]-cyclohexyl}-4-isobutyl-4,5-dihydro-1H-imidazole-4-carboxylic acid methyl ester], the inhibition at 1 µM (Table 2, Examples 11-161) was determined as 93%.

With `CCCCN1C=NC(C(=O)OC)(C(C)CC)C1CC1CCC(C(c2cccc(F)c2)N(C)C)CC1` (stereo not drawn) [Example 73, 1-butyl-4-sec-butyl-5-{4-[dimethylamino-(3-fluorophenyl)-methyl]-cyclohexylmethyl}-4,5-dihydro-1H-imidazole-4-carboxylic acid methyl ester], the inhibition at 1 µM (Table 2, Examples 11-161) came to 92%.

Consider `CN(C)C(c1ccc(Cl)cc1)C1CCC(CC=O)CC1` (stereo not drawn) [Example 10c, {4-[(4-Chlorophenyl)-dimethylaminomethyl]-cyclohexyl}-acetaldehyde], for which, for the setting “Table 1, aldehydes”, the inhibition at 1 µM came to 50%.

With `COC(=O)C1(CSCc2ccccc2)N=CN(C2CCCCC2)C1C1CCC(C(c2cccc(F)c2)N(C)C)CC1` (stereo not drawn) [Example 116, 4-benzylsulfanylmethyl-1-cyclohexyl-5-{4-[dimethylamino-(3-fluorophenyl)-methyl]-cyclohexyl}-4,5-dihydro-1H-imidazole-4-carboxylic acid methyl ester], for the setting “Table 2, Examples 11-161”, the inhibition at 1 µM is 101%.

Take `CCCCN1C=NC(CCSC)(C(=O)OC)C1CC1CCC(C(c2ccc(F)cc2)N(C)C)CC1` (stereo not drawn) [Example 126, 1-butyl-5-{4-[dimethylamino-(4-fluorophenyl)-methyl]-cyclohexylmethyl}-4-(2-methylsulfanyl-ethyl)-4,5-dihydro-1H-imidazole-4-carboxylic acid methyl ester]: where the note is “Table 2, Examples 11-161”, the inhibition at 1 µM is 98%.

On to `COC(=O)CCC1(C(=O)OC)N=CN(CCc2ccccc2)C1CC1CCC(C(CCc2ccccc2)N(C)C)CC1` (stereo not drawn) [Example 84, 5-[4-(1-dimethylamino-3-phenylpropyl)-cyclohexylmethyl]-4-(2-methoxycarbonylethyl)-1-phenethyl-4,5-dihydro-1H-imidazole-4-carboxylic acid methyl ester], for which the inhibition at 1 µM (Table 2, Examples 11-161) amounted to 75%.

Consider `COC(=O)CCC1(C(=O)OC)N=CN(C2CCCCC2)C1C1CCC(C(c2cccc(F)c2)N(C)C)CC1` (stereo not drawn) [Example 115, 1-cyclohexyl-5-{4-[dimethylamino-(3-fluorophenyl)-methyl]-cyclohexyl}-4-(2-methoxycarbonylethyl)-4,5-dihydro-1H-imidazole-4-carboxylic acid methyl ester], for which the inhibition at 1 µM (Table 2, Examples 11-161) was determined as 98%.

As to `CCCN1C=NC(CCC(=O)OC)(C(=O)OC)C1C1CCC(C(c2ccc(Cl)cc2)N(C)C)CC1` (stereo not drawn) [Example 59, 5-{4-[(4-chlorophenyl)-dimethylaminomethyl]-cyclohexyl}-4-(2-methoxycarbonylethyl)-1-propyl-4,5-dihydro-1H-imidazole-4-carboxylic acid methyl ester], under “Table 2, Examples 11-161”, the inhibition at 1 µM came out at 84%.

Turning to `COC(=O)C1(Cc2ccc(Cl)cc2)N=CN(Cc2ccccc2)C1C1CCC(C(c2cccc(F)c2)N(C)C)CC1` (stereo not drawn) [Example 47, 1-benzyl-4-(4-chlorobenzyl)-5-{4-[dimethylamino-(3-fluorophenyl)-methyl]-cyclohexyl}-4,5-dihydro-1H-imidazole-4-carboxylic acid methyl ester], under “Table 2, Examples 11-161”, the inhibition at 1 µM came to 74%.

With `CCCCN1C=NC(CCC(=O)OC)(C(=O)OC)C1CC1CCC(C(c2ccc(F)cc2)N(C)C)CC1` (stereo not drawn) [Example 76, 1-butyl-5-{4-[dimethylamino-(4-fluorophenyl)-methyl]-cyclohexylmethyl}-4-(2-methoxycarbonylethyl)-4,5-dihydro-1H-imidazole-4-carboxylic acid methyl ester], where the note is “Table 2, Examples 11-161”, the inhibition at 1 µM was found to be 93%.

In the case of `CCCCN1C=NC(CCC(=O)OC)(C(=O)OC)C1C1CCC(C(c2ccc(Cl)cc2)N(C)C)CC1` (stereo not drawn) [Example 68, 1-butyl-5-{4-[(4-chlorophenyl)-dimethylaminomethyl]-cyclohexyl}-4-(2-methoxycarbonylethyl)-4,5-dihydro-1H-imidazole-4-carboxylic acid methyl ester], the inhibition at 1 µM (Table 2, Examples 11-161) was found to be 90%.

As to `CCCCN1C=NC(CSC)(C(=O)OC)C1CC1CCC(C(c2ccc(F)cc2)N(C)C)CC1` (stereo not drawn) [Example 77, 1-butyl-5-{4-[dimethylamino-(4-fluorophenyl)-methyl]-cyclohexylmethyl}-4-methylsulfanylmethyl-4,5-dihydro-1H-imidazole-4-carboxylic acid methyl ester], where the note is “Table 2, Examples 11-161”, the inhibition at 1 µM amounted to 88%.

In the case of `CCCN1C=NC(CCC(=O)OC)(C(=O)OC)C1CC1CCC(C(CCc2ccccc2)N(C)C)CC1` (stereo not drawn) [Example 71, 5-[4-(1-dimethylamino-3-phenylpropyl)-cyclohexylmethyl]-4-(2-methoxycarbonylethyl)-1-propyl-4,5-dihydro-1H-imidazole-4-carboxylic acid methyl ester], for the setting “Table 2, Examples 11-161”, the inhibition at 1 µM was found to be 78%.

Turning to `CCCCC1(C(=O)OC)N=CN(CCc2ccccc2)C1C1CCC(C(c2ccc(Cl)cc2)N(C)C)CC1` (stereo not drawn) [Example 42, 4-butyl-5-{4-[(4-chlorophenyl)-dimethylaminomethyl]-cyclohexyl}-1-phenethyl-4,5-dihydro-1H-imidazole-4-carboxylic acid methyl ester], the inhibition at 1 µM (Table 2, Examples 11-161) is 94%.
